US11578087B2, “Oxaborole esters and uses thereof” (priority 2016, dated 2023)
Like-named read-outs stand apart in the source and are kept apart here.

How the values were obtained:
[1] = system: IL3000 T. congolense (drug sensitive) strain; test: In vitro Alamar Blue 72 h drug sensitivity assay for T. congolense; assay type: cell-based, Trypanosoma congolense; conditions: bloodstream form, 69 h + 3 h Resazurin, 34° C., read-out: IC50: I Org. Growth T. congolense 3 d
How it was run: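 IC50 values derive from 11-point curves averaged over at least three independent runs, with fluorescence read at 536 nm excitation and 588 nm emission. Resazurin was added for a final 3 h after 69 h compound exposure of bloodstream forms (HMI medium, 20% bovine serum, 34° C, 5% CO2).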

[2] = system: STIB719/ILRAD560 T. vivax (drug sensitive) strain; test: Ex vivo Alamar Blue 48 h drug sensitivity assay for T. vivax; assay type: cell-based; conditions: Trypanosoma vivax, ex vivo bloodstream form from mouse, 45 hrs + 3 hrs Resazurin, 37° C., read-out: IC50: I Hypoxanthine Incorporation T. vivax 2 d

SMILES	IC50 [1] [nM]	IC50 [2] [nM]	IC50 ([1]; Trypanosoma congolense, 72 h) [nM]
COC(=O)[C@H](Cc1ccccc1)NC(=O)c1ccc2c(c1)B(O)OC2 [Example 6-026, Methyl (1-hydroxy-1,3-dihydrobenzo[c][1,2]oxaborole-6-carbonyl)-L-phenylalaninate]	0.51 to 9.99	50 to 2000	–
CC(C)[C@H](NC(=O)c1ccc2c(c1C1CC1)B(O)OC2)C(=O)OCc1ccc(F)cc1 [Example 6-057, 4-Fluorobenzyl (7-cyclopropyl-1-hydroxy-1,3-dihydrobenzo[c][1,2]oxaborole-6-carbonyl)-L-valinate]	–	< 0.5	0.51 to 9.99
Cc1c(C(=O)N[C@H](C(=O)OCc2cccc(F)c2)C(C)C)ccc2c1B(O)OC2 [Example 6-042, 3-Fluorobenzyl (1-hydroxy-7-methyl-1,3-dihydrobenzo[c][1,2]oxaborole-6-carbonyl)-L-valinate]	–	< 0.5	0.51 to 9.99
CC(C)[C@H](NC(=O)c1ccc2c(c1)B(O)OC2)C(=O)OCc1ccc(F)cc1F [Example 6-031, 2,4-Difluorobenzyl (1-hydroxy-1,3-dihydrobenzo[c][1,2]oxaborole-6-carbonyl)-L-valinate]	–	0.51 to 49.9	0.51 to 9.99
Cc1c(C(=O)N[C@H](C(=O)OCc2ccc(F)c(Cl)c2)C(C)C)ccc2c1B(O)OC2 [Example 6-051, 3-Chloro-4-fluorobenzyl (1-hydroxy-7-methyl-1,3-dihydrobenzo[c][1,2]oxaborole-6-carbonyl)-L-valinate]	–	< 0.5	< 0.5
CCCc1c(C(=O)N[C@H](C(=O)OCc2ccc(F)cc2)C(C)C)ccc2c1B(O)OC2 [Example 6-064, 4-fluorobenzyl (1-hydroxy-7-propyl-1,3-dihydrobenzo[c][1,2]oxaborole-6-carbonyl)-L-valinate]	–	0.51 to 49.9	0.51 to 9.99
C[C@H](NC(=O)c1ccc2c(c1)B(O)OC2)C(=O)O[C@H](C)c1ccccc1 [Example 6-019, (R)-1-Phenylethyl (1-hydroxy-1,3-dihydrobenzo[c][1,2]oxaborole-6-carbonyl)-L-alaninate]	–	50 to 2000	0.51 to 9.99
Cc1c(C(=O)N[C@H](C(=O)OCc2cnc(C(F)(F)F)nc2)C(C)C)ccc2c1B(O)OC2 [Example 6-159, (2-(Trifluoromethyl)pyrimidin-5-yl)methyl (1-hydroxy-7-methyl-1,3-dihydrobenzo[c][1,2]oxaborole-6-carbonyl)-L-valinate]	–	< 0.5	< 0.5
Cc1c(C(=O)N[C@H](C(=O)OCc2ccc(OCCCN3CCCC3)c(F)c2)C(C)C)ccc2c1B(O)OC2 [Example 6-246, 3-Fluoro-4-(3-(pyrrolidin-1-yl)propoxy)benzyl (1-hydroxy-7-methyl-1,3-dihydrobenzo[c][1,2]oxaborole-6-carbonyl)-L-valinate]	–	< 0.5	0.51 to 9.99
Cc1c(C(=O)N[C@H](C(=O)OCc2ccc3c(c2)C(=O)CS3(=O)=O)C(C)C)ccc2c1B(O)OC2 [Example 6-104, (1,1-Dioxido-3-oxo-2,3-dihydrobenzo[b]thiophen-5-yl)methyl (1-hydroxy-7-methyl-1,3-dihydrobenzo[c][1,2]oxaborole-6-carbonyl)-L-valinate]	–	0.51 to 49.9	10 to 5000
CC(C)[C@H](NC(=O)c1ccc2c(c1C(F)(F)F)B(O)OC2)C(=O)OCc1ccc(F)cc1 [Example 6-070, 4-Fluorobenzyl (1-hydroxy-7-(trifluoromethyl)-1,3-dihydrobenzo[c][1,2]oxaborole-6-carbonyl)-L-valinate]	–	50 to 2000	10 to 5000
C[C@@H](OC(=O)[C@H](Cc1ccccc1)NC(=O)c1ccc2c(c1)B(O)OC2)c1ccccc1 [Example 6-021, (R)-1-phenylethyl (1-hydroxy-1,3-dihydrobenzo[c][1,2]oxaborole-6-carbonyl)-L-phenylalaninate]	–	0.51 to 49.9	0.51 to 9.99
Cc1c(C(=O)N[C@H](C(=O)OCc2ccc(F)cc2)c2ccccc2)ccc2c1B(O)OC2 [Example 6-045, 4-Fluorobenzyl (S)-2-(1-hydroxy-7-methyl-1,3-dihydrobenzo[c][1,2]oxaborole-6-carboxamido)-2-phenylacetate]	–	< 0.5	< 0.5
